# Patent US20120276064A1, “METHODS AND COMPOSITIONS FOR REJUVENATION AND EXPANSION OF STEM CELLS” (priority 2011, published 2012)
# What was measured:
# [1] = test system: young and old MuSCs; assay: Bulk proliferation of MuSCs in soft hydrogel culture; type: cell-based, mouse; conditions: soft (12 kPa) hydrogel, 10 μM, one week
# Procedure: MuSC culture and treatment. Following isolation, MuSCs were pelleted and resuspended into myogenic cell culture medium containing DMEM/F10 (50:50), 15% FBS, 2.5 ng/ml bFGF, and 1% penicillin/streptomycin. MuSCs were seeded at 1000 cells per well (24-well plate size wells, 2.0 cm^2 surface area) on laminin-tethered hydrogels of either 12 kPa (soft) or ˜10^6 kPa (rigid) rigidities. Cells were maintained at 37° C. in 5% CO2. Media was changed daily. […]
# Proliferation assays. MuSC proliferation in hydrogel culture was assessed at both the clonal and bulk levels. […] Cell proliferation was monitored by time-lapse microscopy from 12 hours (day 0) to four days post-seeding as described previously using a PALM/AxioObserver Z1 system (Carl Zeiss MicroImaging) with custom environmental control chamber and motorized stage. Images were recorded every 20 min at 5× magnification. […] After one week, cells were trypsinized and counted on a hemocytometer.
# [2] = test system: p38 signaling (phosphorylation of the p38 substrate MK2); assay: Phospho-MK2 flow cytometry in primary myoblasts stimulated with anisomycin and TNF; type: cell-based; conditions: primary mouse myoblasts, 10 μM pretreatment one hour, anisomycin 1 μg/ml + TNF 50 ng/ml 30 min
# Procedure: Phospho-MK2 flow cytometry. To analyze p38 signaling, the phosphorylation of MK2, a readout of p38 kinase activity, was assayed by flow cytometry. Primary mouse myoblasts were isolated as previously described. Myoblasts were cultured on collagen-coated tissue-culture plastic dishes in myogenic cell medium and were maintained at 37° C. in 5% CO2. Myoblasts were pretreated with 0.1% DMSO carrier control or 10 μM SB202190 for one-hour and then were stimulated with anisomycin (1 μg/ml; Sigma) and TNF (50 ng/ml; R&D Systems, Minneapolis, Minn.) for 30 minutes or mock buffer (PBS). Pretreatments and stimuli were added in 50× spike solutions. After 15 minutes, cells were collected from hydrogel cultures by incubation 0.5% trypsin in PBS for 2 min at 37° C. Cells were fixed with 1.5% paraformaldehyde in PBS, permeabilized in methanol at −80° C., and stained with an AlexFluor488-conjugated antibody reactive to the phosphorylated (Thr334) form of MK2 (Cell Signaling). Cells were analyzed for phospho-MK2 positivity on a modified FACStar Plus flow cytometer using FACS Diva software (BD Biosciences).
# [3] = test system: p21, Myogenin, Pax7 transcripts in MuSCs; assay: Quantitative real-time PCR gene expression in hydrogel-cultured MuSCs; type: cell-based, mouse; conditions: old MuSCs, soft hydrogel, 10 μM, one week
# Procedure: MuSC culture and treatment. Following isolation, MuSCs were pelleted and resuspended into myogenic cell culture medium containing DMEM/F10 (50:50), 15% FBS, 2.5 ng/ml bFGF, and 1% penicillin/streptomycin. MuSCs were seeded at 1000 cells per well (24-well plate size wells, 2.0 cm^2 surface area) on laminin-tethered hydrogels of either 12 kPa (soft) or ˜10^6 kPa (rigid) rigidities. Cells were maintained at 37° C. in 5% CO2. Media was changed daily. For proliferation and p38 inhibition studies, the following ligands/inhibitors were supplemented in the myogenic medium and maintained consistently through the experiment: 25 ng/ml Wnt7a (R&D Systems, Minneapolis, Minn.), 25 ng/ml Jagged1-Fc (R&D Systems, Minneapolis, Minn.), 10 nM tautomycetin (PP1 inhibitor; Tocris Bioscience, Ellisville, Mo.), 10 μM SB202190 or 10 μM SB203580 (p38 inhibitors; EMD Chemicals, Gibbstown, N.J.), 1 μM SB431542 (ALK4/5/7 inhibitor; Tocris Bioscience), or 0.1% DMSO carrier control. All MuSC cell culture assays and transplantations were performed after one week of culture unless noted otherwise.
# Quantitative real-time PCR. RNA was isolated from freshly isolated and cultured cells using the RNeasy Micro kit (Qiagen, Valencia, Calif.). Total RNA from each sample was reverse transcribed using the High Capacity cDNA RT kit (Applied Biosystems, Carlsbad, Calif.). cDNA was subjected to real-time PCR using a SYBR Green PCR Master Mix (Applied Biosystems). Real-time PCR was performed using an ABI 7900HT Real Time PCR system and software (Applied Biosystems). Samples were cycled at 95° C. for 10 min and then 40 cycles of 95° C. for 15 sec and 60° C. for 1 min. To quantify relative transcript levels, the 2^−ΔΔCt method was used, and freshly isolated young MuSCs were used as reference value (plotted as 1 in all graphs). Gapdh was used as a normalizing gene. Primer sequences for Gapdh, p21, myogenin, and Pax7 were obtained from literature or using NIH Primer3.
# [4] = test system: myogenin protein expression in young MuSCs; assay: Myogenin immunofluorescence analysis of hydrogel-cultured MuSCs; type: cell-based, mouse; conditions: soft hydrogel, 10 μM, one week, compared to control
# Procedure: Myogenin immunofluorescence analysis. MuSCs from young mice were isolated and cultured on 12 kPa hydrogels with either 0.1% DMSO control or 10 μM SB202190. After one week of culture, cells were fixed with 0.5% paraformaldehyde in PBS. Fixed cells were blocked with 20% goat serum and 0.5% Triton X100 in PBS. Cells were stained with anti-myogenin antibody (Santa Cruz Biotechnology, Santa Cruz, Calif.) and then an AlexaFluor594-conjugated secondary antibody (Invitrogen). Nuclei were stained with Topro3 (Invitrogen)the Immunofluorescence images were acquired using a LSM510 laser-scanning confocal microscope (Carl Zeiss Microimaging) with a Plan NeoFluar 20x/0.75NA objective. Digital images were captured using LSM510 software. Images were composed and edited in Photoshop software (Adobe). Background was reduced and contrast was enhanced equivalently across all images of the same stain. Nuclear regions were identified by Topro3 staining using MetaMorph software (Molecular Devices, Sunnyvale, Calif.). Within each nuclear region, the myogenin intensity was integrated using MetaMorph software. Nuclear myogenin intensities from each condition were plotted in a log-scale histogram to establish a threshold defining myogenin-positive cells.
smiles,measurement,setting,value
Oc1ccc(-c2nc(-c3ccncc3)c(-c3ccc(F)cc3)[nH]2)cc1 [SB202190],Increase in total cell numbers (relative to seeding),[1],~30 fold
same,Stimulation of proliferation of hydrogel-cultured MuSCs (in words),[1],profound stimulation of proliferation
same,p38 signaling activity / MK2 phosphorylation,[2],prevents MK2 phosphorylation
same,p38 signaling activity / MK2 phosphorylation,[2]; listed as SB,substantially attenuated p38 signaling activity
same,Transcription of the MuSC transcription factor Pax7,[3],increased
same,Transcription of the cell cycle inhibitor p21,[3],decreased
same,Transcription of the commitment marker Myogenin,[3],decreased
same,Percentage of myogenin+ cells,[4],greatly diminished
